Several values for one entry are separate records, joined by “and”; a condition that tells them apart may be missing. Identical values can stand only once.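 Growth conditions: 96-well plates. Treatment: test compound, 48 hours, 5 concentrations. Analysis: linear interpolation between bracketing concentrations; unreached endpoints set to highest concentration. The concentration for 50% growth inhibition is given as GI50. TGI: total growth inhibition.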 Some results are limits rather than exact numbers.

The values below come from PubChem BioAssay (NCI).

Test systems include 786-0 renal; DU-145 prostate; K-562 leukemia; LOX IMVI melanoma; NCI-H226 lung; NCI-H23 lung; NCI-H522 lung; OVCAR-4 ovarian; PC-3 prostate; UACC-62 melanoma.
Common to all, as to test: NCI anticancer screen, dose series, 48 h

As to `CC1(C)OC[C@@H](/C=C\CCO[Si](c2ccccc2)(c2ccccc2)C(C)(C)C)N1C(=O)c1ccccc1`, the TGI in the assay with 786-0 renal worked out at 28 µM; in the assay with DU-145 prostate it was 95.9 µM; in the assay with K-562 leukemia, 52.1 µM; with LOX IMVI melanoma it was 28.6 µM; in the assay on NCI-H226 lung, 25.5 µM; with NCI-H23 lung it was 96.7 µM. Also, the TGI was 18.8 µM with NCI-H522 lung, greater than 100 µM with OVCAR-4 ovarian, greater than 100 µM with PC-3 prostate and 33.1 µM in the assay with UACC-62 melanoma.
Consider `Oc1ccc2ccccc2c1-c1nnc(CCCCCCCCc2nnc(-c3c(O)ccc4ccccc34)o2)o1`, for which the TGI in the assay on 786-0 renal was 8.94 µM and 30.9 µM; in the assay with DU-145 prostate, 9.59 µM and > 24.2 µM; in the assay on K-562 leukemia, 25 µM and > 57.5 µM; with LOX IMVI melanoma, 25 µM and > 100 µM; in the assay on NCI-H226 lung it was 29.6 µM; with NCI-H23 lung, 6.33 µM and > 62.2 µM. Further, the TGI was 5.82 µM and 24.2 µM in the assay with NCI-H522 lung; 25 µM in the assay with OVCAR-4 ovarian; 22.4 µM and 50.6 µM with PC-3 prostate; 25 µM and > 100 µM in the assay with UACC-62 melanoma. Besides, the GI50 was 2380 nM in the assay on DU-145 prostate; 1680 nM with K-562 leukemia; 437 nM in the assay with LOX IMVI melanoma; 1.22 µM in the assay with NCI-H23 lung; 1.53 µM in the assay on NCI-H522 lung; 2.35 µM with OVCAR-4 ovarian. Besides, the GI50 in the assay on PC-3 prostate is 1.55 µM; in the assay with UACC-62 melanoma, 2.54 µM.
Turning to `CCCCCCCCCCCCCCCCP(=O)(O)OP(=O)(O)OCC1OC(n2ccc(N)nc2=O)C(O)C1O` (configuration not stated), the TGI was > 100 µM and 27.6 µM in the assay with 786-0 renal; greater than 100 µM in the assay with DU-145 prostate; greater than 100 µM in the assay with K-562 leukemia; greater than 100 µM in the assay with LOX IMVI melanoma; > 100 µM and 78.9 µM with NCI-H226 lung; greater than 100 µM with NCI-H23 lung. Besides, the TGI in the assay with NCI-H522 lung, in the assay on OVCAR-4 ovarian, with PC-3 prostate and in the assay with UACC-62 melanoma was greater than 100 µM in each case. Moreover, the GI50 was 64.5 µM and 21.6 µM in the assay on NCI-H226 lung; > 100 µM and 13.9 µM with NCI-H23 lung; > 100 µM and 24.6 µM with NCI-H522 lung; 91.4 µM and 43.8 µM with OVCAR-4 ovarian; 37.8 µM and 10.8 µM in the assay on PC-3 prostate; 44.5 µM and 9.63 µM with UACC-62 melanoma.
As to `C=C(CCOC)CCC1CCCCC(=C)C1=O` (configuration not stated), the TGI in the assay with 786-0 renal, in the assay with DU-145 prostate, with K-562 leukemia, with LOX IMVI melanoma, in the assay with NCI-H226 lung and in the assay on NCI-H23 lung was greater than 100 µM in each case. The TGI in the assay with NCI-H522 lung, in the assay with OVCAR-4 ovarian, in the assay on PC-3 prostate and in the assay on UACC-62 melanoma was greater than 100 µM each time.
Turning to `CSc1c(C(C)=O)c(O)n(-c2ccc(Cl)cc2)c(=O)c1C#N`, the TGI was greater than 100 µM in the assay with 786-0 renal; greater than 100 µM in the assay with DU-145 prostate; 92.2 µM in the assay with K-562 leukemia; greater than 100 µM in the assay with LOX IMVI melanoma; greater than 100 µM in the assay on NCI-H226 lung; greater than 100 µM with NCI-H23 lung. The TGI was 21.9 µM with NCI-H522 lung, greater than 100 µM in the assay on OVCAR-4 ovarian, greater than 100 µM in the assay with PC-3 prostate and greater than 100 µM in the assay with UACC-62 melanoma.
As for `CC(=O)N(C(C)=O)n1c(Cc2ccc(Cl)cc2)nn(C(C)=O)c1=O`, the TGI in the assay on 786-0 renal, in the assay on DU-145 prostate, in the assay with K-562 leukemia, in the assay with LOX IMVI melanoma, in the assay on NCI-H226 lung and in the assay on NCI-H23 lung was greater than 100 µM in each case. In addition, the TGI in the assay with NCI-H522 lung, in the assay with OVCAR-4 ovarian, with PC-3 prostate and in the assay on UACC-62 melanoma was greater than 100 µM each time.
Regarding `CCCCn1cc(C(=O)O)c(=O)c2c3sccc3ccc21`, the TGI in the assay with 786-0 renal, in the assay on DU-145 prostate, in the assay with K-562 leukemia, in the assay on LOX IMVI melanoma, in the assay on NCI-H226 lung and in the assay on NCI-H23 lung was greater than 100 µM each time. The TGI in the assay on NCI-H522 lung, in the assay on OVCAR-4 ovarian, with PC-3 prostate and with UACC-62 melanoma was greater than 100 µM throughout.
Regarding `CCCCC[C@H](O)[C@H](C)C=C1SCCCS1`, the TGI in the assay on 786-0 renal, with DU-145 prostate, in the assay with K-562 leukemia, in the assay with LOX IMVI melanoma, in the assay on NCI-H226 lung and in the assay with NCI-H23 lung was greater than 100 µM throughout. Moreover, the TGI in the assay with NCI-H522 lung, with OVCAR-4 ovarian, in the assay with PC-3 prostate and in the assay on UACC-62 melanoma was greater than 100 µM throughout.
As to `O=C1c2cc(Cl)ccc2-n2c(noc2=O)C2CSCN12` (configuration not stated), the TGI in the assay with 786-0 renal, with DU-145 prostate, in the assay on K-562 leukemia, with LOX IMVI melanoma, in the assay with NCI-H226 lung and with NCI-H522 lung was greater than 100 µM in each case. In addition, the TGI in the assay with OVCAR-4 ovarian, in the assay on PC-3 prostate and in the assay with UACC-62 melanoma was greater than 100 µM in each case.
For the compound `COc1ccc(CNc2nc(NCc3ccc(OC)cc3)nc(NC3CCCCC3)n2)cc1`, the TGI in the assay on 786-0 renal was greater than 100 µM; in the assay with DU-145 prostate, 6.88 µM; with K-562 leukemia, greater than 100 µM; in the assay with LOX IMVI melanoma, 20.2 µM; in the assay on NCI-H226 lung, 5.71 µM; with NCI-H522 lung, 3.39 µM. Also, the results for the TGI in the assay with OVCAR-4 ovarian, with PC-3 prostate and with UACC-62 melanoma were greater than 100 µM, greater than 100 µM and 9.41 µM, respectively.
